# Residue numbers refer to the chain shown, from its start. Entries after “also recorded” stand apart in the source; their conditions may differ.
# What was measured:
# [1] = biological target: T1, AR F876L (Homo sapiens, UniProt P10275, DEL79-80/DUP473-473/F877L); assay: EGFP reporter assay of AR activity, LNCaP-Pb.PSE.EGFP cells, flow cytometry; format: cell-based; conditions: 10 μM, 4 days of treatment
# T1 construct: expressed in transfected cells
# T1 sequence (P10275 with tags, fused parts or gaps DEL79-80/DUP473-473/F877L): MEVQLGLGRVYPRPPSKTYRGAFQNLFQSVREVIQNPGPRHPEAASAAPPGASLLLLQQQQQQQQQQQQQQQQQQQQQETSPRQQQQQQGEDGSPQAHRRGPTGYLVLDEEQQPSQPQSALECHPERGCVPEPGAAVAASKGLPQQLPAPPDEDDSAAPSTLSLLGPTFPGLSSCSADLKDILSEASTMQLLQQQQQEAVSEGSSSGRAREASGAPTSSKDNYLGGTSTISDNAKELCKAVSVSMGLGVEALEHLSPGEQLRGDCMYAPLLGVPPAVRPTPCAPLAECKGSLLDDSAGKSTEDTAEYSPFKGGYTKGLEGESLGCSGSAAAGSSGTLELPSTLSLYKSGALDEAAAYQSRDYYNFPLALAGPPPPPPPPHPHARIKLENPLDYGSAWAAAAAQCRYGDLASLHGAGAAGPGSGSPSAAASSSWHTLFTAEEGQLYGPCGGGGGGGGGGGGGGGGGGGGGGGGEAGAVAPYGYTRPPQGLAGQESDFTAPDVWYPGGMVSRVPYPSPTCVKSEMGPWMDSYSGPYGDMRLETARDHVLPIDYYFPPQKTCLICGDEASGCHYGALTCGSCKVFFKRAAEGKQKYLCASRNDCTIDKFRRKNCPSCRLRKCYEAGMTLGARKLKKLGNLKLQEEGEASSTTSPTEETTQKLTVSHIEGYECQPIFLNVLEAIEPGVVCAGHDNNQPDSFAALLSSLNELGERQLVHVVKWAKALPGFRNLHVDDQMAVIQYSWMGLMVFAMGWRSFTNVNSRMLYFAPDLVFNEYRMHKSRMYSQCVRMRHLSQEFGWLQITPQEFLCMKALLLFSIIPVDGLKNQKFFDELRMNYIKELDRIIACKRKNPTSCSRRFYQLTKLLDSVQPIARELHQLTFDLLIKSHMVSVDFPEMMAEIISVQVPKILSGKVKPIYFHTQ
# Description: (§1) This clone was used for all flow cytometry assays and for the FACS-based resistance screens.
# [2] = biological target: T2, AR WT (Homo sapiens, UniProt P10275, DEL79-80/DUP473-473); assay: as above; format: cell-based; conditions: 10 μM, 4 days of treatment
# T2 construct: expressed in transfected cells; host or cells: LNCaP-Pb.PSE.EGFP (pantropic retroviral infection, blasticidin selection)
# T2 sequence (P10275 with tags, fused parts or gaps DEL79-80/DUP473-473): T1 sequence (P10275 with tags, fused parts or gaps DEL79-80/DUP473-473/F877L) with L876F
# Description: as §1
# [3] = tested on: AR mutants isolated from drug resistant LNCaP/AR xenograft tumors; assay: Luciferase reporter assay of AR activity in androgen depleted media, CV1 cells; format: cell-based, human; conditions: 10 μm antiandrogen
# [4] = tested on: AR mutants isolated from drug resistant LNCaP/AR xenograft tumors; assay: EGFP reporter assay of AR activity, LNCaP/Pb.PSE.EGFP cells; format: cell-based, human; conditions: androgen containing media, 10 μM antiandrogen
# Method: Additionally, EGFP reporter assays of AR activity in cells expressing the indicated AR mutants were performed and the data are presented in FIG. 21A and FIG. 21B.
# [5] = tested on: AR mutants isolated from drug resistant CWR22Pc cells; assay: EGFP reporter assay and qRT-PCR, LNCaP/Pb.PSE.EGFP cells; format: cell-based, human; conditions: 10 μM antiandrogen; variable degrees, gene-specific differences
# [6] = tested on: DU145 (an AR null human prostate cancer cell line); assay: DU145 cell viability (CellTiterGLO); format: cell-based; conditions: 10 μM, full serum containing media
# Method: DU145 cells were cultured in full serum containing media with 10 uM of the indicated antiandrogens. CellTiterGLO assay was performed on days 0, 3, and 6 to determine cell viability. RLU=relative light units.
# [7] = tested on: VCaP cells overexpressing AR WT; assay: VCaP growth assay (CellTiter-GLO); format: cell-based, human; conditions: full-serum containing media, 10 μM
# [8] = tested on: CWR22PC cells expressing AR WT; assay: CWR22PC cell viability (CellTiterGLO); format: cell-based, human; conditions: full serum media; days 1, 4, and 7
# Method: […]. […] CellTiterGLO assay was performed on days 1, 4, and 7 to measure cell viability. […] CellTiterGLO assay was performed on days 1, 4, and 7 to measure cell viability.
# […]. […] CellTiterGLO assay was performed on days 1, 4, and 7 to determine cell viability. RLU=relative light units.
# [9] = tested on: LNCaP/AR cells ectopically expressing AR WT; assay: LNCaP/AR xenograft, time to tumor progression; format: in vivo, castrated male SCID mice; conditions: 30 mg/kg enzalutamide, daily gavage, castrate SCID mice
# Method: Daily gavage treatment (using a formulation of 1% carboxymethyl cellulose, 0.1% Tween-80, 5% DMSO) was initiated on the day of injection. Once tumors were palpable, tumor size was measured weekly in three dimensions (1×w×d) with calipers.
# [10] = biological target: T3, AR T877A (Homo sapiens, UniProt P10275, DEL79-80/DUP473-473/T878A); assay: AR luciferase reporter assay (ARE(4X)-luciferase) in CV1 cells; format: cell-based; conditions: 10 μM antiandrogen
# T3 construct: expressed in transfected cells; host or cells: CV1
# T3 sequence (P10275 with tags, fused parts or gaps DEL79-80/DUP473-473/T878A): T1 sequence (P10275 with tags, fused parts or gaps DEL79-80/DUP473-473/F877L) with L876F, T877A
# Method: Transfection media was removed 4-6 hours later and replaced with phenol red free DME-HG containing 10% charcoal stripped serum. The following day each plate was split into 24- or 48-well plates, in 10% CSS media, containing the indicated drugs in triplicate. Twenty-four to forty-eight hours later, luciferase activity was assayed using Dual-Luciferase Reporter Assay System (Promega) on a 96-well luminometer (Turner Biosystems).
# [11] = tested on: VCaP cells overexpressing AR F876L; assay: VCaP growth assay (CellTiter-GLO); format: cell-based, human; conditions: full-serum containing media, 10 μM
structure (smiles),measurement,setting,value
"CNC(=O)c1ccc(N2CC(=O)N(c3ccc(C#N)c(C(F)(F)F)c3)C2=S)cc1F [DR107, 4-(3-(4-cyano-3-(trifluoromethyl)phenyl)-4-oxo-2-thioxoimidazolidin-1-yl)-2-fluoro-N-methylbenzamide]",Effect on transcriptional activity of AR F876L in EGFP reporter assay (agonism or antagonism),[1],agonist
same,Effect on transcriptional activity of AR WT in EGFP reporter assay (agonism or antagonism),[2],agonist
CNC(=O)c1ccc(N2C(=S)N(c3cnc(C#N)c(C(F)(F)F)c3)C(=O)C23CCC3)cc1F [ARN-509],"Agonism on AR mutants, luciferase reporter",[3],none of the mutants conferred agonism
same,"Sensitivity of AR mutants, EGFP reporter",[4],still remained sensitive
same,"Sensitivity of AR mutants, EGFP reporter assay & qRT-PCR",[5],still remained sensitive
"CNC(=O)c1ccc(N2C(=S)N(c3cnc(C#N)c(C(F)(F)F)c3)C(=O)C23CCCC(C)(C)C3)cc1F (racemic) [(±)-DR106, 4-(3-(6-cyano-5-(trifluoromethyl)pyridin-3-yl)-7,7-dimethyl-4-oxo-2-thioxo-1,3-diazaspiro[4.5]decan-1-yl)-2-fluoro-N-methylbenzamide]",Effect on transcriptional activity of AR F876L in EGFP reporter assay (agonism or antagonism),[1],effectively antagonized; also recorded: AR F876L inhibition
same,Effect on transcriptional activity of AR WT in EGFP reporter assay (agonism or antagonism),[2],effectively antagonized
"CNC(=O)c1ccc(N2C(=S)N(c3ccc(C#N)c(C(F)(F)F)c3)C(=O)C23CCC(C)(C)CC3)cc1F [DR104, 4-(3-(4-cyano-3-(trifluoromethyl)phenyl)-8,8-dimethyl-4-oxo-2-thioxo-1,3-diazaspiro[4.5]decan-1-yl)-2-fluoro-N-methylbenzamide]",Effect on transcriptional activity of AR F876L in EGFP reporter assay (agonism or antagonism),[1],modest agonist
same,Effect on transcriptional activity of AR WT in EGFP reporter assay (agonism or antagonism),[2],antagonist
same,Proliferation of DU145 cells,[6],no significant growth inhibition
CNC(=O)c1ccc(N2C(=S)N(c3ccc(C#N)c(C(F)(F)F)c3)C(=O)C2(C)C)cc1F [enzalutamide],"Growth of VCaP cells, AR WT",[7],only inhibit the growth of VCaP/AR WT; also recorded: potently inhibits the growth
same,"Growth/viability of CWR22PC cells, AR WT",[8],very sensitive
same,Growth of wild-type AR tumors,[9],almost completely inhibited
same,"Agonism on AR mutants, luciferase reporter",[3],none of the mutants conferred agonism
same,"Sensitivity of AR mutants, EGFP reporter",[4],still remained sensitive
same,"Sensitivity of AR mutants, EGFP reporter assay & qRT-PCR",[5],still remained sensitive
CC(C)(O)C(=O)Nc1ccc([N+](=O)[O-])c(C(F)(F)F)c1 [hydroxyflutamide],Agonism in luciferase reporter,[10],confer agonism
"CNC(=O)c1ccc(N2C(=S)N(c3ccc(C#N)c(C(F)(F)F)c3)C(=O)C23CC(C)(C)CC(C)(C)C3)cc1F [DR105, 4-(3-(4-cyano-3-(trifluoromethyl)phenyl)-7,7,9,9-tetramethyl-4-oxo-2-thioxo-1,3-diazaspiro[4.5]decan-1-yl)-2-fluoro-N-methylbenzamide]",Effect on transcriptional activity of AR F876L in EGFP reporter assay (agonism or antagonism),[1],effectively antagonized; also recorded: inhibited
same,Effect on transcriptional activity of AR WT in EGFP reporter assay (agonism or antagonism),[2],effectively antagonized; also recorded: inhibited
"CNC(=O)c1ccc(N2C(=S)N(c3ccc(C#N)c(C(F)(F)F)c3)C(=O)C23CCCCC3)cc1F [DR101, 4-(3-(4-cyano-3-(trifluoromethyl)phenyl)-4-oxo-2-thioxo-1,3-diazaspiro[4.5]decan-1-yl)-2-fluoro-N-methylbenzamide]",Effect on transcriptional activity of AR F876L in EGFP reporter assay (agonism or antagonism),[1],agonist
same,"Growth of VCaP cells, AR WT",[7],only inhibit the growth of VCaP/AR WT
same,Growth of VCaP cells overexpressing AR F876L,[11],did not inhibit cell growth
